Patent US20230167437A1, “COMPOSITIONS FOR TREATING CANCER WITH KRAS MUTATIONS AND USES THEREOF” (Aadigen, LLC, priority 2020, published 2023)

Experiments:
Type in all cases: cell-based, human
[1] = system: wild type KRAS; assay: Indel frequencies at the endogenous target sequences (T7E1 / deep sequencing) after ADGN/Cas9 mRNA/gRNA transfection; settings: deep sequencing, 72 hours after transfection, Cas9 mRNA 0.1 μg, gRNA 0.2 μg
Experimental: (§1) Complex formation with mRNA:gRNA: ADGN peptide/mRNA/gRNA particles were prepared at a 20:1:1 molar ratio. ADGN/Cas9mRNA/sgRNA complexes were prepared at a 20/1/1 molar ratio with 0.5 μg mRNA: 1.5 μg sgRNA and 5% Glucose or DMEM (example for 96 well plates). […] Premixed Cas9 mRNA/gRNA were prepared in sterile water at room temperature in a glass vial (1-4 ml). ADGN-peptide solution was added dropwise (1 drop/sec) under magnetic agitation at 400 rpm to obtain a 1:2 ratio, and incubated for 30 min at room temperature or 37° C. Just before transfection, 150 μl Glucose or DMEM was added and the solution was mixed under magnetic agitation at 400 rpm for 1 minute. Then the solution was incubated for 5 min at 37° C. Then the complexes was ready for cell transfection or IV administration. Prior to IV administration, complexes were diluted in sucrose 5% solution.
(§2) Transfection protocol. The following protocols are reported for 24/48/96 well plate format transfection. Cells should be trypsinized and seeded a day prior transfection Cells were cultured in Dulbecco's Modified Eagle's Medium (DMEM), supplemented with 2 mM glutamine, 1% antibiotics (streptomycin 10,000 μg/mL, penicillin, 10,000 IU/mL) and 10% (w/v) foetal calf serum (FCS), at 37° C. in a humidified atmosphere containing 5% CO2. 96 well plates seeded with 50,000 cells, the day prior transfection, grown to 60-80% confluence and set up to be at around 70% confluence at the day of transfection. Before transfection, cells are washed twice with DMEM (without FBS and pen/strep) (100 μl/well). Cells were then overlaid with 25 μl of complex solution, mixed gently and incubated for 10 min at 37° C.+5% CO2. 50 μl of fresh DMEM (without FBS and Antibiotics) was added and cells were incubated for 2 h at 37° C.+5% CO2 (time of exposure can be adjusted based on sensitivity of the cells). 250 μL of DMEM (containing 10% FCS and 1% antibiotics) were then added without removing the overlay of ADGN peptide/mRNA complexes. Cells were returned to the incubator (37° C., 5% CO2) and analyzed 48 hours to 72 hours post transfection.
(§3) Nine different gRNAs targeting KRAS 35G>T mutant G12V (gRNA35T1, gRNA35T2, gRNA35T3, gRNA35T4, gRNA35T5, gRNA35T6, gRNA35T7, gRNA35T8 and gRNA35T9 (see FIG. 18)) were evaluated on SW403 and SW480 cancer cells harboring G12V KRAS mutation. Cas9 mRNA (0.15 μg) and gRNA (0.2 μg) were associated with ADGN-peptides as reported in experimental procedure. SW403, SW480 and HT-29 cells were cultured in 48 well plate format and treated with free mRNACas9-gRNA, or ADGN-100/mRNACas9:gRNA complex. Indel frequencies at the endogenous target sequences was evaluated 72 hours after transfection by either T7E1 method and by deep sequencing. Cell proliferation was analyzed over a period of 5 days using CellTiter Glow kits on GlowMax (Promega).
(§4) Nine different gRNAs targeting KRAS 35G>A mutant G12D (gRNA35A1, gRNA35A2, gRNA35A3, gRNA35A4, gRNA35A5, gRNA35A6; gRNA35A7, gRNA35A8, gRNA35A9) were evaluated on LS513, Panc1, PK-45H, and PK1 cancer cells harboring G12D KRAS mutation. Cas9 mRNA (0.1 μg) and gRNA (0.2 μg) were associated with ADGN-peptide at molar ratio 20/1 (peptide/nucleic acid). LS513, Panc1, PK-45H, PK1, HS-68 and HT-29 cells were cultured in 48 well plate format and treated with free mRNACas9-gRNA, or ADGN/mRNACas9:gRNA complex. Indel frequencies at the endogenous target sequences was evaluated 72 hours after transfection by either T7E1 method or deep sequencing. Cell proliferation was analyzed over a period of 5 days using CellTiter Glow kits on GlowMax (Promega).

[2] = system: KRAS 35G>A mutant G12D; assay: as above; settings: for indel frequencies: deep sequencing, 72 hours after transfection, Cas9 mRNA 0.1 μg, gRNA 0.2 μg; for disruption of G12D mutant KRAS (FIG. 2A): G12D cancer cells vs wild type KRAS cells (HT29 or HS-68)
Experimental: as §1, §2, §4
(§5) In order to confirm the specificity of sgRNAs targeting G12V, G12C or G12D KRAS mutation, gRNA35T3 targeting G12V, gRNA34T6 targeting G12C, and gRNA35A5 targeting G12D were evaluated on a large panel of cancer cells harboring different KRAS mutations including SW403, SW480, PANC1, PK-45H, PK-1, MIA-PACA, H23, H358, HT-29, HS-68 and LS513. Cas9 mRNA (0.2 μg) and gRNA (0.4 μg) were associated with ADGN peptide at molar ratio 20/1 (peptide/nucleic acid). Cells were cultured in 48 well plate format and treated with free mRNACas9-gRNA, or ADGN/mRNACas9:gRNA complex. Indel frequencies at the endogenous target sequences was evaluated 72 hours after transfection by either T7E1 method and cell proliferation was analyzed over a period of 5 days using CellTiter Glow kits on GlowMax (Promega).

[3] = system: KRAS 34G>T mutant G12C; assay: as above; settings: Mia-PACA, H23, H358 vs HT29 and PANC1 cells
Experimental: as §1, §2
Eight different gRNAs targeting KRAS 34G>T mutant G12C (gRNA34T1, gRNA34T2, gRNA34T3, gRNA34T4, gRNA34T5, gRNA34T6, gRNA34T7 and gRNA34T8) were evaluated on MIA-PACA, H23, H358, H29 and PANC1 cells. Cas9 mRNA (0.1 μg) and gRNA (0.2 μg) were associated with ADGN peptide at molar ratio 20/1 (peptide/nucleic acid). MIA-PACA, H23, H358, PANC1 and HT29 cells were cultured in 48 well plate format and treated with free mRNACas9-gRNA, or ADGN/mRNACas9:gRNA complex. Indel frequencies at the endogenous target sequences was evaluated 72 hours after transfection by either T7E1 method or deep sequencing. Cell proliferation was analyzed over a period of 5 days using CellTiter Glow kits on GlowMax (Promega).
as §5

[4] = system: PANC1, PK1, LS513 and PK-45H cells; assay: Cell proliferation over 5 days (CellTiter Glow); settings: PANC1, PK1, LS513, PK-45H vs HT29 or HS-68 cells harboring KRAS WT
Experimental: as §2, §4

[5] = system: KRAS 35G>T mutant G12V; assay: Indel frequencies at the endogenous target sequences (T7E1 / deep sequencing) after ADGN/Cas9 mRNA/gRNA transfection; settings: SW403, SW480 vs wild type KRAS HT29 cells; T7E1
Experimental: as §1, §2, §3, §5

Row | Sequence | indel frequencies ([1]; HS68 cells (WT KRAS)) | indel frequencies ([1]; HT-29 cells (WT KRAS)) | indel frequencies ([2]; LS513 cells) | indel frequencies ([2]; PANC1 cells) | indel frequencies ([2]; PK1 cells) | indel frequencies ([2]; PK-45H cells) | indel editing and disruption of G12C mutant KRAS (FIG. 3A) [3] | disruption of G12D mutant KRAS (FIG. 2A) [2] | inhibition of proliferation or survival (FIG. 2B) [4] | indel editing and disruption of G12V mutant KRAS (FIG. 1A) [5]
1 | TGA TGG CGT AGG CAA GAGT (guide TGATGGCGTAGGCAAGAGT; chemistry not given here) [gRNA35A4, sgRNA target KRAS G12D mutation (35G>A); PAM GCC] | 5 ± 0.7% | 2 ± 1% | 5 ± 2% | 4 ± 1% | 9 ± 0.1% | 7 ± 2% | – | – | – | –
2 | GCT TGT GGC GTA GGC AA (guide GCTTGTGGCGTAGGCAA; sgRNA, chemical modifications not given here, further chemistry not given here) [gRNA34T7, sgRNA target KRAS G12C mutation (34G>T); PAM GAG] | – | – | – | – | – | – | inefficient or less specific affecting wild type KRAS | – | – | –
3 | AGC TGA TGG CGT AGG CAA (guide AGCTGATGGCGTAGGCAA; chemistry not given here) [gRNA35A3, sgRNA target KRAS G12D mutation (35G>A); PAM GAG] | 4 ± 1% | 1 ± 0.5% | 9 ± 1% | 7 ± 1% | 2 ± 0.5% | 4 ± 1% | – | – | – | –
4 | GTT GGA GCT GAT GGC GT (guide GTTGGAGCTGATGGCGT; chemistry not given here) [gRNA35A6, sgRNA target KRAS G12D mutation (35G>A); PAM AGG] | 2 ± 1% | 5 ± 1% | 32 ± 5% | 60 ± 2% | 37 ± 0.4% | 48 ± 1% | – | induced efficient disruption of G12D mutant KRAS | specifically inhibit proliferation or survival of PANC1, PK1, LS513 and PK-45H cells | –
5 | GGTAGTTGGAGCTGATGGCG (guide GGTAGTTGGAGCTGATGGCG; chemistry not given here) [gRNA35A2, sgRNA target KRAS G12D mutation (35G>A); PAM TAG] | 6 ± 2% | 2 ± 1% | 31 ± 2% | 58 ± 4% | 48 ± 2% | 52 ± 5% | – | induced efficient disruption of G12D mutant KRAS | specifically inhibit proliferation or survival of PANC1, PK1, LS513 and PK-45H cells | –
6 | TTG TGG TAG TTG GAG CTG T (guide TTGTGGTAGTTGGAGCTGT; chemistry not given here) [gRNA35T7, sgRNA target KRAS G12V mutation (c.35G>T); PAM TGG] | – | – | – | – | – | – | – | – | – | specifically induced indel editing and efficient disruption
7 | GCT GAT GGC GTA GGC AA (guide GCTGATGGCGTAGGCAA; chemistry not given here) [gRNA35A9, sgRNA target KRAS G12D mutation (35G>A); PAM GAG] | 12 ± 1% | 17 ± 3% | 21 ± 3% | 25 ± 3% | 34 ± 1% | 18 ± 2% | – | induced efficient disruption of G12D mutant KRAS | – | –
8 | AGC TTG TGG CGT AGG CAA (guide AGCTTGTGGCGTAGGCAA; chemistry not given here) [gRNA34T2, sgRNA target KRAS G12C mutation (34G>T); PAM GAG] | – | – | – | – | – | – | inefficient or less specific affecting wild type KRAS | – | – | –
9 | GGTAGTTGGAGCTTGTGGCG (guide GGTAGTTGGAGCTTGTGGCG; chemistry not given here) [gRNA34T4, sgRNA target KRAS G12C mutation (34G>T); PAM TAG] | – | – | – | – | – | – | inefficient or less specific affecting wild type KRAS | – | – | –
10 | CTT GTG GCG TAG GCA AGAGT (guide CTTGTGGCGTAGGCAAGAGT; sgRNA, chemical modifications not given here, further chemistry not given here) [gRNA34T8, sgRNA target KRAS G12C mutation (34G>T); PAM GCC] | – | – | – | – | – | – | inefficient or less specific affecting wild type KRAS | – | – | –
11 | TTG TGG TAG TTG GAG CTG A (guide TTGTGGTAGTTGGAGCTGA; chemistry not given here) [gRNA35A8, sgRNA target KRAS G12D mutation (35G>A); PAM TGG] | 6 ± 0.1% | 2 ± 0.2% | 7 ± 1% | 9 ± 2% | 18 ± 1% | 11 ± 1% | – | – | – | –
